Assay [1] has as its system platelet aggregation. As to the kind of experiment: Inhibitory activity on platelet aggregation in rats (ADP-induced, after oral treatment). The format is in vivo. The following applies: Rattus norvegicus, 2 hours after oral treatment, 1.5×10^-5 M adenosine diphosphate, read-out: Percent inhibition of platelet aggregation, Rat. As to the method: (§1) I. Inhibitory activity on platelet aggregation in rats and rabbits
(§2) The citrated blood was obtained 2 hours after the oral treatment with test compounds. The platelet aggregation of platelet rich-plasma was induced by addition of 1.5×10^-5 M adenosine diphosphate (final concentration) and was measured with a Born type six channel aggregometer (G.V.R. Born, J. Physiol. 162, 67 (1962)). […] II. Antihypertensive activity in spontaneously hypertensive rats

For assay [2], the system named is platelet aggregation. As to the kind of experiment: Inhibitory activity on platelet aggregation in rabbits (ADP-induced, after oral treatment). The following applies: Oryctolagus cuniculus, 2 hours after oral treatment, 1.5×10^-5 M adenosine diphosphate, ± SE, read-out: Percent inhibition of platelet aggregation, Rabbit. Type of assay: in vivo. Here is the method: as §1, §2

Assay [3] concerns spontaneously hypertensive rats. The assay is described as follows: Antihypertensive activity in spontaneously hypertensive rats (tail blood pressure). Type of assay: in vivo, rat. The following applies: po, decrease of maximum blood pressure at 5 hours after treatment. Here is the method: as §2
A group of 5 spontaneously hypertensive rats (300-350 g) was used. Tail blood pressure was determined by a rat tail manometer (NARCO, PE-300) without anesthesia immediately before and 5 hours after the oral treatment with test compounds. The rat was warmed at 40° C. for 10 minutes. The apparatus detects blood flow pulses in the tail by a pulse sensor. The arterial blood flow was interrupted by applying pressure to the tail through a pneumatic cuff. The blood flow reappeared when the cuff pressure was decreased. The value was approximately equal to the maximum blood pressure.

Each structure is given as a SMILES string. Where a name gives a salt, the structure may show the parent alone.

Take `CC(=O)OCC1CC(=O)NN=C1c1ccc2c(c1)CCC(=O)N2C` (stereo not drawn) [Compound B, 6-(5-Acetoxymethyl-3-oxo-2,3,4,5-tetrahydropyridazin-6-yl)-1-methyl-1,2,3,4-tetrahydroquinolin-2-one]: the inhibition (usually how much of the control response was suppressed) at 3 mg/kg was 51% in assay [1] and 85 ± 6% in assay [2]. In addition, the “Decrease of tail blood pressure in SHR” value in assay [3] (3 mg/kg) amounted to 31 mmHg; in assay [3] (30 mg/kg) it was 62 mmHg.

For the molecule `CC1CC(=O)NN=C1c1ccc2c(c1)C(C)(C)CC(=O)N2C` (stereo not drawn) [Compound C, 6-(5-Methyl-3-oxo-2,3,4,5-tetrahydropyridazin-6-yl)-1,4,4-trimethyl-1,2,3,4-tetrahydroquinolin-2-one], the results for the inhibition at 3 mg/kg in assay [1] and in assay [2] were 59% and 93 ± 1%, respectively. The figures for the “Decrease of tail blood pressure in SHR” value in assay [3] (3 mg/kg) and in assay [3] (30 mg/kg) were 48 mmHg and 63 mmHg, respectively.

For `CC1CC(=O)NN=C1c1ccc2c(c1)C(C)CC(=O)N2C` (stereo not drawn) [Compound D, 6-(5-Methyl-3-oxo-2,3,4,5-tetrahydropyridazin-6-yl)-1,4-dimethyl-1,2,3,4-tetrahydroquinolin-2-one], the inhibition at 0.1 mg/kg in assay [1] (0.1 mg/kg) turned out to be 38%. Besides, the inhibition at 0.3 mg/kg in assay [2] (0.3 mg/kg) worked out at 78 ± 6%. The “Decrease of tail blood pressure in SHR” value in assay [3] (0.3 mg/kg) was determined as 16 mmHg; in assay [3] (3 mg/kg), 71 mmHg.

As to `CN1C(=O)CC(C)(C)c2cc(C3=NNC(=O)CC3CO)ccc21` (stereo not drawn) [Compound E, 6-(5-Hydroxymethyl-3-oxo-2,3,4,5-tetrahydropyridazin-6-yl)-1,4,4-trimethyl-1,2,3,4-tetrahydroquinolin-2-one], the inhibition at 10 mg/kg in assay [1] (10 mg/kg) was found to be 43%. The inhibition at 30 mg/kg in assay [2] (30 mg/kg) came out at 48 ± 16%.

With `CN1C(=O)CCc2cc(C3=NNC(=O)CC3CO)ccc21` (stereo not drawn) [Compound F, 6-(5-Hydroxymethyl-3-oxo-2,3,4,5-tetrahydropyridazin-6-yl)-1-methyl-1,2,3,4-tetrahydroquinolin-2-one], the inhibition at 3 mg/kg in assay [1] amounted to 62%. Moreover, the “Decrease of tail blood pressure in SHR” value in assay [3] (30 mg/kg) is 92 mmHg.

For `CCC1CC(=O)NN=C1c1ccc2c(c1)CCC(=O)N2CC` (stereo not drawn) [Compound G, 6-(5-Ethyl-3-oxo-2,3,4,5-tetrahydropyridazin-6-yl)-1-ethyl-1,2,3,4-tetrahydroquinolin-2-one], the inhibition at 3 mg/kg in assay [1] is 34%.

As to `CCN1C(=O)CCc2cc(C3=NNC(=O)CC3CO)ccc21` (stereo not drawn) [Compound H, 6-(5-Hydroxymethyl-3-oxo-2,3,4,5-tetrahydropyridazin-6-yl)-1-ethyl-1,2,3,4-tetrahydroquinolin-2-one], the inhibition at 3 mg/kg in assay [1] worked out at 46%.

In the case of `CCN1C(=O)CCc2cc(C3=NNC(=O)CC3COC(C)=O)ccc21` (stereo not drawn) [Compound I, 6-(5-Acetoxymethyl-3-oxo-2,3,4,5-tetrahydropyridazin-6-yl)-1-ethyl-1,2,3,4-tetrahydroquinolin-2-one], the inhibition at 3 mg/kg in assay [1] was 46%. In addition, the “Decrease of tail blood pressure in SHR” value in assay [3] (30 mg/kg) came out at 47 mmHg.

With `CCN1C(=O)CCc2cc(C3=NNC(=O)CC3C)ccc21` (stereo not drawn) [Compound J, 6-(5-Methyl-3-oxo-2,3,4,5-tetrahydropyridazin-6-yl)-1-ethyl-1,2,3,4-tetrahydroquinolin-2-one], in assay [1], the inhibition at 3 mg/kg amounted to 35%.

Consider `CC1CC(=O)N(CCN2CCOCC2)N=C1c1ccc2c(c1)CCC(=O)N2C` (stereo not drawn) [Compound K, 6-[5-Methyl-2-(2-morpholinoethyl)-3-oxo-2,3,4,5-tetrahydropyridazin-6-yl]-1-methyl-1,2,3,4-tetrahydroquinolin-2-one hydrochloride hemihydrate], for which the values for the inhibition at 3 mg/kg in assay [1] and in assay [2] were 51% and 75 ± 8%, respectively. The “Decrease of tail blood pressure in SHR” value in assay [3] (3 mg/kg) was determined as 45 mmHg.

These data come from patent US4258185A, “Pyridazinone compounds” (Yoshitomi Pharmaceutical Industries, Ltd., priority 1980, dated 1981).
